Reference: patent US20120252741A1, “NOVEL SEMI-SYNTHETIC GLYCOPEPTIDES AS ANTIBACTERIAL AGENTS” (priority 2008, published 2012)
Converted amounts (≈) assume the structure as drawn. Like-named read-outs stand apart in the source and are kept apart here.

Columns and labels:
Type in all cases: cell-based
[1] = test system: Staphylococcus aureus 100 (ATCC 29213); assay: MIC, broth microdilution, SA 100; details: Staphylococcus aureus, ATCC29213, class symbols, read-out: MIC SA 100
Description: (§1) Antibacterial activity in vitro is investigated by broth microdilution method in Meuller-Hinton broth as recommended by NCCLS. All strains tested are clinical isolates either sensitive or resistant to natural glycopeptides. MIC values were determined using the CLSI-recommended broth microdilution procedure (Clinical and Laboratory Standards Institute, Methods for Dilution Antimicrobial Susceptibility Tests for Bacteria That Grow Aerobically; Approved Standard-Seventh Edition.). Automated liquid handlers (Multidrop 384, Labsystems, Helsinki, Finland; Biomek 2000 and Multimek 96, Beckman Coulter, Fullerton Calif.) were used to conduct serial dilutions and liquid transfers. The MIC value for vancomycin is given for comparison. The abbreviations for organisms tested are as follow: SA 100—Staphylococcus aureus 100 (ATCC 29213); SA 757—Staphylococcus aureus 757 (MRSA); SA 2012—Staphylococcus aureus 2012 (VISA); SE 835—Staphylococcus epidermidis 835; SE 831—Staphylococcus epidermidis 831 (MRSE); EFc 101—Enterococcus faecalis 101 (ATCC 29212); EFc 848—Enterococcus faecalis 848 (VRE, Van A); EFcm 800—Enterococcus faecium 800; EFcm 752—Enterococcus faecium 752 (VRE, Van A); SPNE 1195—Streptococcus pneumoniae 1195 (ATCC 49619); SPY 712—Streptococcus pyogenes 712.

[2] = test system: Staphylococcus aureus 757 (MRSA); assay: MIC, broth microdilution, SA 757; details: read-out: MIC SA 757
Description: as §1

[3] = test system: Staphylococcus aureus 2012 (VISA); assay: MIC, broth microdilution, SA 2012; details: read-out: MIC SA 2012
Description: as §1

[4] = test system: Staphylococcus epidermidis 835; assay: MIC, broth microdilution, SE 835; details: Staphylococcus epidermidis, 835, class symbols, read-out: MIC SE 835
Description: as §1

[5] = test system: Staphylococcus epidermidis 831 (MRSE); assay: MIC, broth microdilution, SE 831; details: Staphylococcus epidermidis, read-out: MIC SE 831
Description: as §1

[6] = test system: Enterococcus faecalis 101 (ATCC 29212); assay: MIC, broth microdilution, EFc 101; details: Enterococcus faecalis, ATCC29212, class symbols, read-out: MIC E FC 101
Description: as §1

[7] = test system: Enterococcus faecalis 848 (VRE, Van A); assay: MIC, broth microdilution, EFc 848; details: VRE, Van A, class symbols, read-out: MIC E FC 848
Description: as §1

Enterococcus faecium 800 = assay: MIC, broth microdilution, EFcm 800; details: Enterococcus faecium, 800, class symbols, read-out: MIC E FCM 800
Description: as §1

[8] = test system: Enterococcus faecium 752 (VRE, Van A); assay: MIC, broth microdilution, EFcm 752; details: VRE, Van A, class symbols, read-out: MIC E FCM 752
Description: as §1

[9] = test system: Streptococcus pneumoniae 1195 (ATCC 49619); assay: MIC, broth microdilution, SPNE 1195; details: Streptococcus pneumoniae, ATCC49619, class symbols, read-out: MIC S PNE 1195
Description: as §1

[10] = test system: Streptococcus pyogenes 712; assay: MIC, broth microdilution, SPY 712; details: Streptococcus pyogenes, 712, class symbols, read-out: MIC S PYO 712
Description: as §1

[11] = Table 2, in the presence of 0.002% Polysorbate 80
[12] = Table 2, in the presence of 0.002% Polysorbate 80, class symbols

Row | Compound | MIC [1, 11] [µg/mL] | MIC [2, 12] [µg/mL] | MIC [3, 12] [µg/mL] | MIC [4, 11] [µg/mL] | MIC [5, 12] [µg/mL] | MIC [6, 11] [µg/mL] | MIC [7, 11] [µg/mL] | MIC (Enterococcus faecium 800; [11]) [µg/mL] | MIC [8, 11] [µg/mL] | MIC [9, 11] [µg/mL] | MIC [10, 11] [µg/mL] | further results
1 | CCCCCCCCC(=O)NC(=O)C[C@@H]1NC(=O)[C@H](NC(=O)[C@@H](CC(C)C)NC)[C@H](O)c2ccc(c(Cl)c2)Oc2cc3cc(c2O[C@@H]2O[C@H](CO)[C@@H](O)[C@H](O)[C@H]2O[C@H]2C[C@](C)(N)[C@H](O)[C@H](C)O2)Oc2ccc(cc2Cl)[C@@H](O)[C@@H]2NC(=O)[C@H](NC(=O)[C@@H]3NC1=O)c1ccc(O)c(c1)-c1c(O)cc(O)cc1[C@@H](C(=O)NC1C3CC4CC(C3)CC1C4)NC2=O (some centres unmarked) [Compound 42] | – | – | – | – | – | – | – | – | – | – | – | MIC ([1]; Table 1): 0.01 to 0.5 µg/mL (≈ 0.0058 to 0.29 µM); MIC ([2]; Table 1, class symbols): 0.01 to 0.5 µg/mL (≈ 0.0058 to 0.29 µM); MIC ([3]; Table 1, class symbols): 1 to 2 µg/mL (≈ 0.58 to 1.16 µM); MIC ([4]; Table 1): 0.01 to 0.5 µg/mL (≈ 0.0058 to 0.29 µM); MIC ([5]; Table 1, class symbols): 0.01 to 0.5 µg/mL (≈ 0.0058 to 0.29 µM); MIC ([6]; Table 1): 0.01 to 0.5 µg/mL (≈ 0.0058 to 0.29 µM); MIC ([7]; Table 1): 1 to 2 µg/mL (≈ 0.58 to 1.16 µM); MIC (Enterococcus faecium 800; Table 1): 0.01 to 0.5 µg/mL (≈ 0.0058 to 0.29 µM); MIC ([8]; Table 1): 0.01 to 0.5 µg/mL (≈ 0.0058 to 0.29 µM); MIC ([9]; Table 1): 0.01 to 0.5 µg/mL (≈ 0.0058 to 0.29 µM); MIC ([10]; Table 1): 0.01 to 0.5 µg/mL (≈ 0.0058 to 0.29 µM)
2 | CNCCOCc1cc(OCCNC)cc(C(=O)NC(=O)C[C@@H]2NC(=O)[C@H](NC(=O)[C@@H](CC(C)C)NC)[C@H](O)c3ccc(c(Cl)c3)Oc3cc4cc(c3O[C@@H]3O[C@H](CO)[C@@H](O)[C@H](O)[C@H]3O[C@H]3C[C@](C)(N)[C@H](O)[C@H](C)O3)Oc3ccc(cc3Cl)[C@@H](O)[C@@H]3NC(=O)[C@H](NC(=O)[C@@H]4NC2=O)c2ccc(O)c(c2)-c2c(O)cc(O)cc2[C@@H](C(=O)NC2C4CC5CC(C4)CC2C5)NC3=O)c1 (some centres unmarked) [Compound 153] | 0.01 to 0.5 | 0.01 to 0.5 | 0.5 to 1 | 0.01 to 0.5 | 0.01 to 0.5 | 0.01 to 0.5 | > 16 | 0.01 to 0.5 | > 16 | 0.01 to 0.5 | 0.01 to 0.5 | –
3 | CN[C@H](CC(C)C)C(=O)N[C@H]1C(=O)N[C@@H](CC(=O)NS(=O)(=O)c2ccc(OCCOC)cc2)C(=O)N[C@H]2C(=O)N[C@H]3C(=O)N[C@H](C(=O)N[C@H](C(=O)NC4C5CC6CC(C5)CC4C6)c4cc(O)cc(O)c4-c4cc3ccc4O)[C@H](O)c3ccc(c(Cl)c3)Oc3cc2cc(c3O[C@@H]2O[C@H](CN)[C@@H](O)[C@H](O)[C@H]2O)Oc2ccc(cc2Cl)[C@H]1O (some centres unmarked) [Compound 101] | – | – | – | – | – | – | – | – | – | – | – | MIC ([1]; Table 1): 0.01 to 0.5 µg/mL (≈ 0.00605 to 0.303 µM); MIC ([2]; Table 1, class symbols): 0.01 to 0.5 µg/mL (≈ 0.00605 to 0.303 µM); MIC ([3]; Table 1, class symbols): 0.01 to 0.5 µg/mL (≈ 0.00605 to 0.303 µM); MIC ([4]; Table 1): 0.01 to 0.5 µg/mL (≈ 0.00605 to 0.303 µM); MIC ([5]; Table 1, class symbols): 0.01 to 0.5 µg/mL (≈ 0.00605 to 0.303 µM); MIC ([6]; Table 1): 0.01 to 0.5 µg/mL (≈ 0.00605 to 0.303 µM); MIC ([7]; Table 1): 1 to 2 µg/mL (≈ 0.605 to 1.21 µM); MIC (Enterococcus faecium 800; Table 1): 0.01 to 0.5 µg/mL (≈ 0.00605 to 0.303 µM); MIC ([8]; Table 1): 0.01 to 0.5 µg/mL (≈ 0.00605 to 0.303 µM); MIC ([9]; Table 1): 0.01 to 0.5 µg/mL (≈ 0.00605 to 0.303 µM); MIC ([10]; Table 1): 0.01 to 0.5 µg/mL (≈ 0.00605 to 0.303 µM)
4 | CCOc1ccc(C(=O)NC(=O)C[C@@H]2NC(=O)[C@H](NC(=O)[C@@H](CC(C)C)NC)[C@H](O)c3ccc(c(Cl)c3)Oc3cc4cc(c3O[C@@H]3O[C@H](CO)[C@@H](O)[C@H](O)[C@H]3O[C@H]3C[C@](C)(N)[C@H](O)[C@H](C)O3)Oc3ccc(cc3Cl)[C@@H](O)[C@@H]3NC(=O)[C@H](NC(=O)[C@@H]4NC2=O)c2ccc(O)c(c2)-c2c(O)cc(O)cc2[C@@H](C(=O)NC2C4CC5CC(C4)CC2C5)NC3=O)cc1 (some centres unmarked) [Compound 63] | 0.01 to 0.5 | 0.01 to 0.5 | 2 to 4 | 0.01 to 0.5 | 0.01 to 0.5 | 0.01 to 0.5 | 4 to 8 | 0.01 to 0.5 | 1 to 2 | 0.01 to 0.5 | 0.01 to 0.5 | –
5 | CN[C@H](CC(C)C)C(=O)N[C@H]1C(=O)N[C@@H](CC(=O)NC(=O)c2ccc(OCCN)c(OCCN)c2)C(=O)N[C@H]2C(=O)N[C@H]3C(=O)N[C@H](C(=O)N[C@H](C(=O)NC4C5CC6CC(C5)CC4C6)c4cc(O)cc(O)c4-c4cc3ccc4O)[C@H](O)c3ccc(c(Cl)c3)Oc3cc2cc(c3O[C@@H]2O[C@H](CO)[C@@H](O)[C@H](O)[C@H]2O[C@H]2C[C@](C)(N)[C@H](O)[C@H](C)O2)Oc2ccc(cc2Cl)[C@H]1O (some centres unmarked) [Compound 165] | 0.01 to 0.5 | 0.01 to 0.5 | 1 to 2 | 0.5 to 1 | 0.01 to 0.5 | 0.01 to 0.5 | > 16 | 0.01 to 0.5 | 2 to 4 | 0.01 to 0.5 | 0.01 to 0.5 | –
6 | CN[C@H](CC(C)C)C(=O)N[C@H]1C(=O)N[C@@H](CC(=O)NC(=O)c2ccc(OCCN)c(OCCN)c2)C(=O)N[C@H]2C(=O)N[C@H]3C(=O)N[C@H](C(=O)N[C@H](C(=O)NC4C5CC6CC(C5)CC4C6)c4cc(O)cc(O)c4-c4cc3ccc4O)[C@H](O)c3ccc(c(Cl)c3)Oc3cc2cc(c3O[C@@H]2O[C@H](CO)[C@@H](O)[C@H](O)[C@H]2O)Oc2ccc(cc2Cl)[C@H]1O (some centres unmarked) [Compound 159] | 0.5 to 1 | 0.5 to 1 | 0.5 to 1 | 0.5 to 1 | 0.01 to 0.5 | 0.5 to 1 | > 16 | 0.01 to 0.5 | 4 to 8 | 0.5 to 1 | 0.01 to 0.5 | –
7 | CCNCCOCc1cc(OCCNCC)cc(C(=O)NC(=O)C[C@@H]2NC(=O)[C@H](NC(=O)[C@@H](CC(C)C)NC)[C@H](O)c3ccc(c(Cl)c3)Oc3cc4cc(c3O[C@@H]3O[C@H](CO)[C@@H](O)[C@H](O)[C@H]3O[C@H]3C[C@](C)(N)[C@H](O)[C@H](C)O3)Oc3ccc(cc3Cl)[C@@H](O)[C@@H]3NC(=O)[C@H](NC(=O)[C@@H]4NC2=O)c2ccc(O)c(c2)-c2c(O)cc(O)cc2[C@@H](C(=O)NC2C4CC5CC(C4)CC2C5)NC3=O)c1 (some centres unmarked) [Compound 164] | 0.01 to 0.5 | 0.01 to 0.5 | 1 to 2 | 0.01 to 0.5 | 0.01 to 0.5 | 0.01 to 0.5 | > 16 | 0.01 to 0.5 | 8 to 16 | 0.01 to 0.5 | 0.01 to 0.5 | –
